Laboratory results published in patent US12077503B2, “Substituted cyclic amides and their use as herbicides” (FMC CORPORATION, priority 2015, dated 2024).

Tests used:
Format in all cases: in vivo
Kochia (Kochia scoparia) [1] = assay: Test A preemergence; settings: Bassia scoparia, pre-emergence, 240 h, Preemergence; for pest or weed control at 31 g/ha: 31 g ai/ha, 0 to 100 scale where 0 is no effect and 100 is complete control, read-out: Kochia plant response rating; for pest or weed control at 125 g/ha: 125 g ai/ha, 0 to 100 scale (0 no effect, 100 complete control), read-out: Plant response rating, Kochia
Outline: (§1)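 Preemergence directed soil spray on seeded pots, or postemergence application to plants 2–10 cm, one- to two-leaf. Solvent mixture non-phytotoxic, with surfactant. Scored ~10 d later, visually, 0–100 vs untreated.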

[2] = test system: giant foxtail (Setaria faberii); assay: Test A preemergence; settings: Setaria faberi, pre-emergence, 240 h, Preemergence; for pest or weed control at 31 g/ha: 31 g ai/ha, 0 to 100 scale where 0 is no effect and 100 is complete control, read-out: Foxtail, Giant plant response rating; for pest or weed control at 125 g/ha: 125 g ai/ha, 0 to 100 scale (0 no effect, 100 complete control), read-out: Plant response rating, Foxtail, Giant
Outline: as §1

[3] = test system: ryegrass, Italian (Italian ryegrass, Lolium multiflorum); assay: Test A preemergence; settings: Lolium multiflorum, pre-emergence, 240 h, Preemergence; for pest or weed control at 31 g/ha: 31 g ai/ha, 0 to 100 scale where 0 is no effect and 100 is complete control, read-out: Ryegrass, Italian plant response rating; for pest or weed control at 125 g/ha: 125 g ai/ha, 0 to 100 scale (0 no effect, 100 complete control), read-out: Plant response rating, Ryegrass, Italian
Outline: as §1

[4] = test system: pigweed (Amaranthus retroflexus); assay: Test A preemergence; settings: Amaranthus retroflexus, pre-emergence, 240 h, Preemergence; for pest or weed control at 31 g/ha: 31 g ai/ha, 0 to 100 scale where 0 is no effect and 100 is complete control, read-out: Pigweed plant response rating; for pest or weed control at 125 g/ha: 125 g ai/ha, 0 to 100 scale (0 no effect, 100 complete control), read-out: Plant response rating, Pigweed
[5] = test system: barnyardgrass (Echinochloa crus-galli); assay: Test A preemergence; settings: Echinochloa crus-galli, pre-emergence, 240 h, Preemergence; for pest or weed control at 31 g/ha: 31 g ai/ha, 0 to 100 scale where 0 is no effect and 100 is complete control, read-out: Barnyardgrass plant response rating; for pest or weed control at 125 g/ha: 125 g ai/ha, 0 to 100 scale (0 no effect, 100 complete control), read-out: Plant response rating, Barnyardgrass
Outline: as §1

[6] = test system: ragweed (common ragweed, Ambrosia elatior); assay: Test A preemergence; settings: Ambrosia artemisiifolia, pre-emergence, 240 h, Preemergence; for pest or weed control at 31 g/ha: 31 g ai/ha, 0 to 100 scale where 0 is no effect and 100 is complete control, read-out: Ragweed plant response rating; for pest or weed control at 125 g/ha: 125 g ai/ha, 0 to 100 scale (0 no effect, 100 complete control), read-out: Plant response rating, Ragweed
Outline: as §1

[7] = test system: sedge, umbrella (small-flower umbrella sedge, Cyperus difformis); assay: Test B flooded paddy test; settings: Cyperus difformis, 360 h, Flood, 250 g ai/ha; visually evaluated after 13 to 15 d; read-out: Plant response rating, Sedge, Umbrella (0 to 100 scale where 0 is no effect and 100 is complete control)
Outline: (§2)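 Plants at 2-leaf stage flooded to 3 cm above soil, with compounds applied directly to paddy water and that depth maintained. Plants kept in greenhouse 13–15 d. Visual rating versus controls on a 0 (no effect) to 100 (complete control) scale.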

[8] = test system: ducksalad (Heteranthera limosa); assay: Test B flooded paddy test; settings: Heteranthera limosa, 360 h, Flood, 250 g ai/ha; visually evaluated after 13 to 15 d; read-out: Plant response rating, Ducksalad (0 to 100 scale where 0 is no effect and 100 is complete control)
Outline: as §2

rice (Oryra sativa) = assay: Test B flooded paddy test; settings: Oryza sativa, 360 h, Flood, 250 g ai/ha; visually evaluated after 13 to 15 d; read-out: Plant response rating, Rice (0 to 100 scale where 0 is no effect and 100 is complete control)
Outline: as §2

[9] = test system: barnyardgrass (Echinochloa crus-galli); assay: Test B flooded paddy test; settings: Echinochloa crus-galli, 360 h, Flood, 250 g ai/ha; visually evaluated after 13 to 15 d; read-out: Plant response rating, Barnyardgrass (0 to 100 scale where 0 is no effect and 100 is complete control)
Outline: as §2

corn (Zea mays) = assay: Test A postemergence; settings: Zea mays, post-emergence, 240 h, Postemergence, read-out: Corn plant response rating (0 to 100 scale); for plant injury at 125 g/ha: 125 g ai/ha, visual rating about 10 d after treatment; for plant injury at 31 g/ha: 31 g ai/ha, 0 is no effect, 100 is complete control
Outline: as §1

Kochia (Kochia scoparia) [10] = assay: Test A postemergence; settings: Bassia scoparia, post-emergence, 240 h, Postemergence, read-out: Kochia plant response rating (0 to 100 scale); for pest or weed control at 125 g/ha: 125 g ai/ha, visual rating about 10 d after treatment; for pest or weed control at 31 g/ha: 31 g ai/ha, 0 is no effect, 100 is complete control
Outline: as §1

[11] = test system: giant foxtail (Setaria faberii); assay: Test A postemergence; settings: Setaria faberi, post-emergence, 240 h, Postemergence, read-out: Foxtail, Giant plant response rating (0 to 100 scale); for pest or weed control at 125 g/ha: 125 g ai/ha, visual rating about 10 d after treatment; for pest or weed control at 31 g/ha: 31 g ai/ha, 0 is no effect, 100 is complete control
Outline: as §1

[12] = test system: ryegrass, Italian (Italian ryegrass, Lolium multiflorum); assay: Test A postemergence; settings: Lolium multiflorum, post-emergence, 240 h, Postemergence, read-out: Ryegrass, Italian plant response rating (0 to 100 scale); for pest or weed control at 125 g/ha: 125 g ai/ha, visual rating about 10 d after treatment; for pest or weed control at 31 g/ha: 31 g ai/ha, 0 is no effect, 100 is complete control
Outline: as §1

[13] = test system: pigweed (Amaranthus retroflexus); assay: Test A postemergence; settings: Amaranthus retroflexus, post-emergence, 240 h, Postemergence, read-out: Pigweed plant response rating (0 to 100 scale); for pest or weed control at 125 g/ha: 125 g ai/ha, visual rating about 10 d after treatment; for pest or weed control at 31 g/ha: 31 g ai/ha, 0 is no effect, 100 is complete control
Outline: as §1

[14] = test system: wheat (Triticum aestivum); assay: Test A postemergence; settings: Triticum aestivum, post-emergence, 240 h, Postemergence, read-out: Wheat plant response rating (0 to 100 scale); for plant injury at 125 g/ha: 125 g ai/ha, visual rating about 10 d after treatment; for plant injury at 31 g/ha: 31 g ai/ha, 0 is no effect, 100 is complete control
Outline: as §1

[15] = test system: barnyardgrass (Echinochloa crus-galli); assay: Test A postemergence; settings: Echinochloa crus-galli, post-emergence, 240 h, Postemergence; for pest or weed control at 125 g/ha: 125 g ai/ha, visual rating about 10 d after treatment, read-out: Barnyardgrass plant response rating (0 to 100 scale, 0 no effect, 100 complete control); for pest or weed control at 31 g/ha: 31 g ai/ha, 0 is no effect, 100 is complete control, read-out: Barnyardgrass plant response rating (0 to 100 scale)
Outline: as §1

[16] = test system: blackgrass (Alopecurus myosuroides); assay: Test A postemergence; settings: Alopecurus myosuroides, post-emergence, 240 h, Postemergence, read-out: Blackgrass plant response rating (0 to 100 scale); for pest or weed control at 125 g/ha: 125 g ai/ha, visual rating about 10 d after treatment; for pest or weed control at 31 g/ha: 31 g ai/ha, 0 is no effect, 100 is complete control
Outline: as §1

[17] = test system: ragweed (common ragweed, Ambrosia elatior); assay: Test A postemergence; settings: Ambrosia artemisiifolia, post-emergence, 240 h, Postemergence, read-out: Ragweed plant response rating (0 to 100 scale); for pest or weed control at 125 g/ha: 125 g ai/ha, visual rating about 10 d after treatment; for pest or weed control at 31 g/ha: 31 g ai/ha, 0 is no effect, 100 is complete control
Outline: as §1

| Compound | pest or weed control at 31 g/ha (Kochia (Kochia scoparia) [1]) [%] | pest or weed control at 125 g/ha (Kochia (Kochia scoparia) [1]) [%] | pest or weed control at 31 g/ha [2] [%] | pest or weed control at 125 g/ha [2] [%] | pest or weed control at 31 g/ha [3] [%] | pest or weed control at 125 g/ha [3] [%] | pest or weed control at 31 g/ha [4] [%] | pest or weed control at 125 g/ha [4] [%] | pest or weed control at 31 g/ha [5] [%] | pest or weed control at 125 g/ha [5] [%] | pest or weed control at 31 g/ha [6] [%] | pest or weed control at 125 g/ha [6] [%] | pest or weed control at 250 g/ha [7] [%] | pest or weed control at 250 g/ha [8] [%] | pest or weed control at 250 g/ha (rice (Oryra sativa)) [%] | pest or weed control at 250 g/ha [9] [%] | plant injury at 125 g/ha (corn (Zea mays)) [%] | plant injury at 31 g/ha (corn (Zea mays)) [%] | pest or weed control at 125 g/ha (Kochia (Kochia scoparia) [10]) [%] | pest or weed control at 31 g/ha (Kochia (Kochia scoparia) [10]) [%] | also measured |
| --- | --- | --- | --- | --- | --- | --- | --- | --- | --- | --- | --- | --- | --- | --- | --- | --- | --- | --- | --- | --- | --- |
| CN1C[C@H](c2ccc3c(c2)OC(F)(F)O3)[C@@H](C(=O)Nc2ccc(F)nc2F)C1=O [Compound 1350] | 30 | 70 | 100 | 100 | 30 | 30 | 70 | 90 | 90 | 90 | 50 | 80 | 0 | 90 | 0 | 90 | 50 | 30 | 70 | 50 | pest or weed control at 125 g/ha [11]: 90%; pest or weed control at 31 g/ha [11]: 70%; pest or weed control at 125 g/ha [12]: 20%; pest or weed control at 31 g/ha [12]: 20%; pest or weed control at 125 g/ha [13]: 70%; pest or weed control at 31 g/ha [13]: 30%; plant injury at 125 g/ha [14]: 50%; plant injury at 31 g/ha [14]: 20%; pest or weed control at 125 g/ha [15]: 90%; pest or weed control at 31 g/ha [15]: 60%; pest or weed control at 125 g/ha [16]: 50%; pest or weed control at 31 g/ha [16]: 0%; pest or weed control at 125 g/ha [17]: 60%; pest or weed control at 31 g/ha [17]: 0% |
| COc1ccc([C@H]2CN(C)C(=O)[C@@H]2C(=O)Nc2cccc(F)c2F)cc1 [Compound 1343] | 0 | 40 | 100 | 100 | 0 | 30 | 0 | 30 | 90 | 90 | 90 | 0 | 0 | 98 | 0 | 95 | 0 | 0 | 50 | 0 | pest or weed control at 125 g/ha [11]: 90%; pest or weed control at 31 g/ha [11]: 60%; pest or weed control at 125 g/ha [12]: 20%; pest or weed control at 31 g/ha [12]: 0%; pest or weed control at 125 g/ha [13]: 0%; pest or weed control at 31 g/ha [13]: 0%; plant injury at 125 g/ha [14]: 30%; plant injury at 31 g/ha [14]: 0%; pest or weed control at 125 g/ha [15]: 90%; pest or weed control at 31 g/ha [15]: 60%; pest or weed control at 125 g/ha [16]: 0%; pest or weed control at 31 g/ha [16]: 0%; pest or weed control at 125 g/ha [17]: 30%; pest or weed control at 31 g/ha [17]: 0% |
